# Measured values taken from patent US20170266222A1, “MODULATION OF CHRFAM7A FOR ANTI-INFLAMMATORY THERAPIES” (THE REGENTS OF THE UNIVERSITY OF CALIFORNIA, priority 2016, published 2017).
# “Also recorded” adds a separate entry of the source.
# Key:
# [1] = tested on: CHRNA7 gene expression; assay: qPCR of CHRNA7 gene expression in gut epithelial cells treated with LPS; assay type: cell-based, human; details: 3 hours
# Procedure: (§1) All epithelial cancer cell lines were originally purchased from American Type Culture Collection and propagated as instructed. Normal human small intestine epithelial cells (FHs-Int-74) were also obtained from the ATCC (CCL-241). Cells were seeded at 2×10^6 in 6-well tissue culture plates the day before the experiment. As indicated, cells were either harvested directly for total RNA preparation, processed for transient transfection, or treated with LPS (CAT# L4391, Sigma) at 100 ng/ml for 3 hours. At the end of the incubation with LPS, cells were harvested and used for analyses of gene expression.
# (§2) Total RNA was prepared using RNeasy kit (Qiagen) and was quantitated using Nanodrop Spectrophotometer. One μg total RNA was reverse transcribed using iScript cDNA synthesis kit (BioRad) in a 20 μl reaction. Of the 20 μl cDNA, one μl was used for RT-PCR or real-time qPCR.
# (§3) RT-PCR was performed in a 50 μl reaction containing 45 μl PCR blue mix (Invitrogen), 1 μl of each primer (10 μM), 1 μl cDNA, and 2 μl water. The cycling conditions were: 94° C. for 4 minutes followed by 35 cycles of 94° C. for 30 seconds, 60° C. for 30 seconds, and 72° C. for 60 seconds and a final extension at 72° C. for 5 minutes. Ten μl of each PCR products were resolved on a 2% agarose gel and images were acquired using Alpha Innotech imaging system. Real-time qPCR was performed in a 25 μl reaction containing 12.5 μl 2×CYBR Green PCR Master Mix (BioRad), 0.5 μl of each primer (10 μM), 1 μl cDNA, and 10.5 μl water. PCR cycling conditions were: 95° C. for 10 minutes followed by 45 cycles of 94° C. for 25 seconds, 60° C. for 25 seconds, and 72° C. for 40 seconds. Primer efficiency for CHRFAM7A and CHRNA7 were 100% and 94% respectively. Expression of CHRNA7 and CHRFAM7A was normalized to that of GAPDH using ΔΔCt method.
# Primers for CHRNA7 were designed to hybridize with both variant 1 and 2 transcripts of CHRNA7 by selecting sequences present in CHRNA7 but absent from CHRFAM7A for amplification: Sense, 5′-acATGcgctgctcgccggga-3′ (SEQ ID NO:13), Anti-sense, 5′-[…]-3′ (SEQ ID NO:14).
# [2] = tested on: CHRFAM7A/CHRNA7 gene expression; assay: qRT-PCR ratio of CHRFAM7A to CHRNA7 in leukocyte cell lines treated with LPS; assay type: cell-based, human; details: 100 ng/ml LPS, 3 hours
# Text: All cell lines were originally purchased from ATCC and/or acquired through the UCSD Department of Surgery, Division of Trauma, Burns and Acute Care Surgery Cell Repository. Thawed cells were washed in RPMI culture media containing 10% FCS, the pellet reconstituted in culture media and cells plated into six-well tissue culture plates. All cells were washed 48 hrs later and allowed to grow to 90% confluence and propagated with trypsin digestion as needed. For transduction studies, cells were seeded at 2×10^6 in 6-well tissue culture plates the day before the experiment. As indicated in each experiment, cells were harvested directly from the culture dishes for total RNA preparation, processed for stable or transient transfection, or treated with 100 ng/ml LPS (CAT# L4391, Sigma) for 3 hours. At the end of incubations, cells were harvested, total RNA isolated and the cDNA generated (see below) used for analyses of gene expression.
# Total RNA was prepared from cell lysates using the RNeasy kit (Qiagen, San Diego Calif.) and was quantified using a Nanodrop Spectrophotometer. […]
# RT-PCR and Quantitative RT-PCR for CHRFAM7A and CHRNA7: RT-PCR was performed in a 50 μl reaction containing 45 μl PCR blue mix (Invitrogen), 1 μl of each primer (10 μM), 1 μl cDNA, and 2 μl water. […]
# [3] = tested on: CHRFAM7A gene expression; assay: qPCR of CHRFAM7A gene expression in gut epithelial cells treated with LPS; assay type: cell-based, human
# Procedure: as §1, §2, §3
# Primers for CHRFAM7A were designed to hybridize with the variant 1 transcript by selecting sequences that bridge CHRFAM7A and CHRNA7 and therefore unique to CHRFAM7A and not available in FAM7A or CHRNA7A alone: Sense: 5′-ATAGCTGCAAACTGCGATA-3′ (SEQ ID NO:11), Anti-sense: 5′-[…]-3′(SEQ ID NO:12).
# [4] = tested on: CHRFAM7A promoter; assay: CHRFAM7A promoter luciferase reporter in THP1 cells; assay type: cell-based, human; details: THP1 cells pre-treated with 100 ng/ml LPS
# Text: (§4) Analyses of the CHRFAM7A promoter: The putative CHRFAM7A promoter region spanning from −2363 to +22 relative to the open reading frame ATG start codon was amplified by PCR of genomic DNA isolated from HEK293 cells. The longest fragment was cloned into pGL4 promoter-less luciferase reporter plasmid (Promega) according to the manufacturers specifications and the resulting plasmid, pGL4-CHRFAM7A (˜2400) was confirmed by DNA sequencing and thereafter referred to f2400 to reflect the size of the fragment. […]
# (§5) The fragments generated were cloned into the pGL4 vector to create plasmids f1800, f1000, and f500, which were each sequenced to confirm their identity. These plasmids were then transiently transfected into THP1 cells as described below, and luciferase activity was analyzed 30 hours after transfection following the manufacturer's instructions (Promega). […]
# THP1 cells, cultured in RPMI1640 supplemented with 1× Glutamax and 1× Penicillin/Streptomycin, were seeded at 5×10^5 per well in a 24-well plate two hours before transfection. […] The lysate was spun down and 10 μl of the supernatant was used for luciferase assay on POLARstar Omega plate reader (BMG LABTECH). Luciferase activity normalized to protein concentration was expressed as fold changes over that of pGL4 transfected cells.
# [5] = tested on: CHRNA7 and CHRFAM7A; details: undifferentiated human THP1 cells and human macrophages; cited from earlier work
# [6] = tested on: CHRFAM7A promoter; assay: CHRFAM7A promoter luciferase reporter in FHs cells; assay type: cell-based, human; details: LPS 100 ng/ml
# Text: as §4, with “The” for “Analyses of the CHRFAM7A promoter: The”, “(2400)” for “(˜2400)”, “F2400” for “f2400”
# as §5, with “FHs” for “THP1”
# Transfections of FHs cells for luciferase activity: The normal human small intestine FHs cells were cultured in 10% DMEM/F12 supplemented with 1× Glutamax, 1× Penicillin/Streptomyxin, and 30 ng/ml EGF and seeded at 1×10^5 per well in a 12-well plate the day before transfection. […] The lysate was spun down and 10 μl of the supernatant was used for luciferase assay on POLARstar Omega plate reader (BMG LABTECH).
substance,measurement,setting,value
lipopolysaccharide [LPS],increase in CHRNA7 gene expression,"[1]; CaCo2, KM12, KM20, SW, Colo205 cells, 100 ng LPS",less than two-fold
same,decrease in CHRNA7 gene expression,"[1]; FHs and T84 cells, 100 ng LPS",30%
same,effect on CHRNA7 gene expression,"[1]; epithelial cells, 100 ng/ml LPS",little to no effect; also recorded: little effect
same,ratio of CHRFAM7A to CHRNA7 gene expression,[2],unaffected; also recorded: both genes respond equally
same,CHRFAM7A gene expression by q-PCR,"[3]; FHs cells, 100 ng/ml LPS, 3 hr",increases
same,relative expression of CHRFAM7A over CHRNA7,"[3]; HCT116T, KM20L and T84 cells, LPS",unchanged
same,change of CHRFAM7A gene expression,"[3]; KM12 and T84 cells, 100 ng/ml LPS",decreased
same,increase of CHRFAM7A gene expression,"[3]; epithelial cells, 100 ng/ml LPS, 3 hour treatment",~1000 fold
same,increase of relative expression of CHRFAM7A over CHRNA7,"[3]; gut epithelial cells, depending on the cell line, LPS",2-200 fold
same,luciferase signal of CHRFAM7A 5'UTR fragments,[4],decreased; also recorded: inhibited
same,effect on CHRNA7 and CHRFAM7A,[5],inhibits
same,luciferase activity profile of CHRFAM7A UTR fragments,[6],very similar profile
